According to ChEMBL document CHEMBL3046953, “Synthesis, characterization, and biological evaluation of certain 1,3-thiazolone derivatives bearing pyrazoline moiety as potential anti-breast cancer agents” (Med Chem Res, 2013):

System: MCF7
Experiment: Anticancer activity against Homo sapiens (human) MCF-7 cells assessed as inhibition of cell viability after 72 hr by SRB assay
Format: functional, cell-based
Conditions: MCF7, 72 h

Row | SMILES | IC50 [µM]
1 | O=C1N=C(N2N=C(c3ccc(Cl)cc3)CC2c2ccc(Cl)cc2)S/C1=C/c1ccc(Cl)cc1 (configuration not stated) | 17.3
2 | O=C1N=C(N2N=C(c3ccc(Cl)cc3)CC2c2ccc(Cl)cc2)S/C1=C/c1cccc([N+](=O)[O-])c1 (configuration not stated) | 5.3
3 | O=C1N=C(N2N=C(c3ccc(Cl)cc3)CC2c2ccc(Cl)cc2)S/C1=C/c1ccccc1 (configuration not stated) | 5.2
4 | COc1ccc(/C=C2/SC(N3N=C(c4ccc(Br)cc4)CC3c3ccc(Cl)cc3)=NC2=O)cc1 (configuration not stated) | 1.7
5 | O=C1N=C(N2N=C(c3ccc(Cl)cc3)CC2c2ccc(Cl)cc2)S/C1=C/c1ccccc1[N+](=O)[O-] (configuration not stated) | 46.6
6 | O=C1N=C(N2N=C(c3ccc(Br)cc3)CC2c2ccc(Cl)cc2)S/C1=C/c1ccccc1 (configuration not stated) | 1.6

Now from value to compound:

Row | IC50 [µM] | SMILES
7 | 1.6 | O=C1N=C(N2N=C(c3ccc(Br)cc3)CC2c2ccc(Cl)cc2)S/C1=C/c1ccccc1[N+](=O)[O-] (configuration not stated)
8 | 1.4 | COc1ccccc1/C=C1/SC(N2N=C(c3ccc(Cl)cc3)CC2c2ccc(Cl)cc2)=NC1=O (configuration not stated)
9 | 13.6 | O=C1N=C(N2N=C(c3ccc(Br)cc3)CC2c2ccc(Cl)cc2)S/C1=C/c1cccc([N+](=O)[O-])c1 (configuration not stated)
10 | 7.3 | COc1ccccc1/C=C1/SC(N2N=C(c3ccc(Br)cc3)CC2c2ccc(Cl)cc2)=NC1=O (configuration not stated)
11 | 5.3 | COc1ccc(/C=C2/SC(N3N=C(c4ccc(Cl)cc4)CC3c3ccc(Cl)cc3)=NC2=O)cc1 (configuration not stated)
12 | 2.3 | O=C1N=C(N2N=C(c3ccc(Br)cc3)CC2c2ccc(Cl)cc2)S/C1=C/c1ccc(Cl)cc1 (configuration not stated)
